The record followed here is patent US8999389B2, “Bioresorbable controlled-release composition” (priority 2006, dated 2015).

The data set is described as follows: Intravenous bolus dosing of 2-hydroxyflutamide in dogs, plasma concentration. Type of data set: in vivo, Labrador dogs. To be noted: single intravenous bolus 25 mg. As for the experimental part:
First, an animal study was performed with 4 sexually mature Labrador dogs, aged 1 year, under approval by the Animal Ethics Committee of University of Gothenburg.
The male dogs (Labrador) were first given an intravenous single bolus dose of 2-hydroxyflutamide or 25 mg (10 ml solution) per animal during 30 seconds. The composition of the intravenous solution was sterile saline 54%, sterile polyethyleneglycol 400, 46% and 6% ethanol (95%).
After injection into vena jugularis, blood samples were taken at predetermined time points during 10 hours.

For the molecule `CC(C)(O)C(=O)Nc1ccc([N+](=O)[O-])c(C(F)(F)F)c1` [2-hydroxyflutamide], the “time after which plasma concentration was below the detection limit” value is recorded as “about 10 hrs”.
